Data taken from ChEMBL document CHEMBL4680330, “Soloxolone methyl, as a 18βH-glycyrrhetinic acid derivate, may result in endoplasmic reticulum stress to induce apoptosis in breast cancer cells” (Bioorg Med Chem, 2021).

Assays:
MCF7 = assay: Cytotoxicity against human MCF7 cells assessed as reduction in cell viability incubated for 48 hrs by ATP based luminometry; format: functional; details: MCF7, 48 h
[1] = tested on: Epidermoid carcinoma cell line; assay: Cytotoxicity against human Epidermoid carcinoma cell line; format: functional, cell-based
MDA-MB-231 [2] = assay: Induction of apoptosis in human MDA-MB-231 cells assessed as pro-caspase 3 level at 4.39 uM incubated for 24 hrs by Western blot analysis (reference value: 1); format: functional
MDA-MB-231 [3] = assay: Induction of apoptosis in human MDA-MB-231 cells assessed as cleaved pro-caspase 8 level at 4.39 uM incubated for 24 hrs by Western blot analysis (reference value: 1); format: functional
MDA-MB-231 [4] = assay: Induction of endoplasmic reticulum stress in human MDA-MB-231 cells assessed as BIP expression at 4.39 uM incubated for 24 hrs by Western blot analysis (reference value: 1); format: functional
MDA-MB-231 [5] = assay: Induction of apoptosis in human MDA-MB-231 cells assessed as PARP level at 4.39 uM incubated for 24 hrs by Western blot analysis (reference value: 1); format: functional
MDA-MB-231 [6] = assay: Induction of apoptosis in human MDA-MB-231 cells assessed as pro-caspase 8 level at 4.39 uM incubated for 24 hrs by Western blot analysis (reference value: 1); format: functional
MDA-MB-231 [7] = assay: Induction of endoplasmic reticulum stress in human MDA-MB-231 cells assessed as IRE1-alpha expression at 4.39 uM incubated for 24 hrs by Western blot analysis (reference value: 1); format: functional
MDA-MB-231 [8] = assay: Induction of apoptosis in human MDA-MB-231 cells assessed as cleaved pro-caspase 3 level at 4.39 uM incubated for 24 hrs by Western blot analysis (reference value: 1); format: functional
MDA-MB-231 [9] = assay: Induction of endoplasmic reticulum stress in human MDA-MB-231 cells assessed as CHOP expression at 4.39 uM incubated for 24 hrs by Western blot analysis (reference value: 1); format: functional
MDA-MB-231 [10] = assay: Induction of apoptosis in human MDA-MB-231 cells assessed as cleaved PARP level at 4.39 uM incubated for 24 hrs by Western blot analysis (reference value: 1); format: functional

SMILES | IC50 (MCF7) | IC50 [1] | fold change (FC) (MDA-MB-231 [2]) | fold change (FC) (MDA-MB-231 [3]) | fold change (FC) (MDA-MB-231 [4]) | fold change (FC) (MDA-MB-231 [5]) | fold change (FC) (MDA-MB-231 [6]) | fold change (FC) (MDA-MB-231 [7]) | fold change (FC) (MDA-MB-231 [8]) | fold change (FC) (MDA-MB-231 [9]) | fold change (FC) (MDA-MB-231 [10])
CC1(C)[C@@H](O)CC[C@]2(C)[C@H]3C(=O)C=C4[C@@H]5C[C@@](C)(C(=O)O)CC[C@]5(C)CC[C@@]4(C)[C@]3(C)CC[C@@H]12 [ENOXOLONE] | 32.6 µM | ≥ 300 nM |  |  |  |  |  |  |  |  | 
COc1cccc2c1C(=O)c1c(O)c3c(c(O)c1C2=O)C[C@@](O)(C(=O)CO)C[C@@H]3O[C@H]1C[C@H](N)[C@H](O)[C@H](C)O1 [DOXORUBICIN] |  |  | 2.5 | 0.6 | 0.1 | 0.2 | 0.3 | 0.1 | 2 | 0.3 | 23.2
